Measured values published in patent US12473298B2, “Amide compounds, preparation method therefor, and use thereof in the medical field” (Shanghai Synergy Pharmaceutical Sciences Co., Ltd., priority 2019, dated 2025).
Structures can show the parent of a compound that is named as a salt. Where two headings read alike, the source gives them in different places.

Key:
[1] = Pharmacokinetic experiment in rats; type: in vivo, SD rats; settings: for AUC / Cmax / bioavailability: male, SD, rat; for AUC: read-out: Area Curve (AUC, ng/mL · h); for half-life: male, SD, rat, plasma; rats, Intravenous-Dose 4 mg/kg; read-out: Half life T1/2, h) (converted); for Cmax: read-out: Blood Drug level (Cmax, ng/mL)
Method: A certain amount of compound was weighted and dissolved in 0.1% Tween under vortex and ultrasound, and 0.5% carboxymethyl cellulose sodium (CMC-NA) solution was added to form a uniform solution.

[2] = system: human diffuse large cell lymphoma B lymphocytes (Pfeiffer cell); experiment: Pfeiffer cell proliferation, Calcein AM staining; type: cell-based; settings: Homo sapiens, Pfeiffer
Description: The diffuse large cell lymphoma B lymphocytes (Pfeiffer cells) were collected and counted when growing well.

[3] = system: human diffuse large B-cell lymphoma cells (Karpas 422 cell); experiment: Karpas 422 cell proliferation, Calcein AM staining; type: cell-based; settings: Homo sapiens
[4] = plasma, rats, Intravenous-Dose 4 mg/kg
[5] = plasma, rats, Oral-Dose 20 mg/kg
[6] = plasma, rats, oral 20 mg/kg vs intravenous 4 mg/kg, read-out: Bioavailability (P %)
[7] = data of 14th day, read-out: Pfeiffer Proliferation IC50 Nanomoles per Liter
[8] = KARPAS-422, data of 14th day, read-out: Karpas422 Proliferation IC50 Nanomoles per Liter
[9] = KARPAS-422, read-out: Karpas422 Proliferation IC50 Nanomoles per Liter (nM)

SMILES	AUC [1, 4] [µg·h/mL]	half-life [1] [h]	AUC [1, 5] [µg·h/mL]	Cmax [1, 5] [ng/mL]	bioavailability [1, 6] [%]	IC50 [2, 7] [nM]	IC50 [3, 8] [nM]	further results
CCN(c1cc(-c2ccc3c(c2)NC(=O)C32CCOCC2)cc(C(=O)NCc2c(OC)cc(C)[nH]c2=O)c1C)C1CCNCC1 [Example 3, 3-(ethyl(piperidin-4-yl)amino)-N-((4-methoxy-6-methyl-2-oxo-1,2-dihydropyridin-3-yl)methyl)-2-methyl-5-(2-oxo-2′,3′,5′,6′-tetrahydrospiro[dihydroindole-3,4′-pyran]-6-yl)benzamide]	0.948	1.15	1.57	415	33.1			
CCN(c1cc(-c2cc3c(cc2F)CCC32CCOCC2)cc(C(=O)NCc2c(OC)cc(C)[nH]c2=O)c1C)C1CCOCC1 [Example 16, 3-(ethyl(tetrahydro-2H-pyran-4-yl)amino)-5-(5-fluoro-2,2′,3,3′,5′,6′-hexahydrospiro[indene-1,4′-pyran]-6-yl)-N-((4-methoxy-6-methyl-2-carbonyl-1,2-dihydropyridin-3-yl)methyl)-2-methylbenzamide]	0.956	1.42	1.31	480	27.4			
CCN1C(=O)C2(CCOCC2)c2ccc(-c3cc(C(=O)NCc4c(C)cc(C)[nH]c4=O)c(C)c(N(CC)C4CCOCC4)c3)cc21 [Example 18, N-((4,6-dimethyl-2-carbonyl-1,2-dihydropyridin-3-yl)methyl)-3-(ethyl(tetrahydro-2H-pyran-4-yl)amino)-5-(1-ethyl-2-carbonyl-2′,3′,5′,6′-tetrahydrospiro[dihydroindole-3,4′-pyran]-6-yl)-2-methylbenzamide]	0.932	1.35	1.19	472	25.5			
CCN(c1cc(-c2ccc3c(c2)N(CC(F)(F)F)CC32CCOCC2)cc(C(=O)NCc2c(C)cc(C)[nH]c2=O)c1C)C1CCOCC1 [Example 20, N-((4,6-dimethyl-2-carbonyl-1,2-dihydropyridin-3-yl)methyl)-3-(ethyl(tetrahydro-2H-pyran-4-yl)amino)-2-methyl-5-(1-(2,2,2-trifluoroethyl)-2′,3′,5′,6′-tetrahydrospiro[dihydroindole-3,4′-pyran]-6-yl)benzamide]						2.32	3.03	
CCN(c1cc(-c2ccc3c(c2)N(CCC(F)(F)F)CC32CCOCC2)cc(C(=O)NCc2c(C)cc(C)[nH]c2=O)c1C)C1CCOCC1 [Example 26, N-((4,6-dimethyl-2-oxo-1,2-dihydropyridin-3-yl)methyl)-3-(ethyl(tetrahydro-2H-pyran-4-yl)amino)-2-methyl-5-(1-(3,3,3-trifluoropropyl)-2′,3′,5′,6′-tetrahydrospiro[indoline-3,4′-pyran]-6-yl)benzamide]						1.85	2.53	
CCN(c1cc(-c2ccc3c(c2)N(C)CC32CCN(C(=O)OC)CC2)cc(C(=O)NCc2c(C)cc(C)[nH]c2=O)c1C)C1CCOCC1 [Example 33, Methyl 6-(3-(((4,6-dimethyl-2-carbonyl-1,2-dihydropyridin-3-yl)methyl)carbamoyl)-5-(ethyl(tetrahydro-2H-pyran-4-yl)amino)-4-methylphenyl)-1-methylspiro[dihydroindole-3,4′-piperidine]-1′-carboxylate]						3.1	4.92	
CCN(c1cc(-c2ccc3c(c2)N(C)CC32CCOCC2)cc(C(=O)NCc2c(OC)cc(C)[nH]c2=O)c1C)C1CCN(CC(F)(F)F)CC1 [Example 40, 3-(ethyl(1-(2,2,2-trifluoroethyl)piperidin-4-yl)amino)-N-((4-methoxy-6-methyl-2-carbonyl-1,2-dihydropyridin-3-yl)methyl)-2-methyl-5-(1-methyl-2′,3′,5′,6′-tetrahydrospiro[dihydroindole-3,4′-pyran]-6-yl)benzamide]						2.49	3.09	
CCN1C(=O)C2(CCOCC2)c2ccc(-c3cc(N(CC)C4CCOCC4)c(C)c(C(=O)NCc4c(C)cc(C)[nH]c4=O)c3Cl)cc21 [Example 48, 2-chloro-N-((4,6-dimethyl-2-oxo-1,2-dihydropyridin-3-yl)methyl)-5-(ethyl(tetrahydro-2H-pyran-4-yl)amino)-3-(1-ethyl-2-oxo-2′,3′,5′,6′-tetrahydrospiro[dihydroindole-3,4′-pyran]-6-yl)-6-methylbenzamide]								IC50 ([2]; read-out: Pfeiffer Proliferation IC50 Nanomoles per Liter (nM)): 1.42 nM; IC50 [3, 9]: 1.99 nM
CCN(c1cc(-c2ccc3c(c2)N(C(C)C)CC32CCOCC2)c(Cl)c(C(=O)NCc2c(OC)cc(C)[nH]c2=O)c1C)C1CCOCC1 [Example 49, 2-chloro-5-(ethyl(tetrahydro-2H-pyran-4-yl)amino)-3-(1-isopropyl-2,3,5,6-tetrahydrospiro[dihydroindole-3,4-pyran]-6-yl)-N-((4-methoxy-6-methyl-2-oxo-1,2-dihydropyridin-3-yl)methyl)-6-methylbenzamide]	0.997	1.31	1.3	598	26.2			
CCN(c1cc(-c2ccc3c(c2)C2(CC3)CC(C)N(CC)C(C)C2)cc(C(=O)NCc2c(OC)cc(C)[nH]c2=O)c1C)C1CCOCC1 (stereo not drawn) [Example 50, 3-(ethyl(tetrahydro-2H-pyran-4-yl)amino)-5-(1′-ethyl-2′,6′-dimethyl-2,3-dihydrospiro[indene-1,4′-piperidine]-6-yl)-N-((4-methoxy-6-methyl-2-oxo-1,2-dihydropyridin-3-yl)methyl)-2-methylbenzamide formate]	0.954	1.34	1.35	448	28.2			IC50 [3, 9]: 1.08 nM
CCN1CC2(CCOCC2)c2ccc(-c3cc(N(CC)C4CCOCC4)c(C)c(C(=O)NCc4c(C)cc(C)[nH]c4=O)c3Cl)cc21 [Example 54, 2-chloro-N-((4,6-dimethyl-2-carbonyl-1,2-dihydropyridin-3-yl)methyl)-5-(ethyl(tetrahydro-2H-pyran-4-yl)amino)-3-(1-ethyl-2′,3′,5′,6′-tetrahydrospiro[dihydroindole-3,4′-pyran]-6-yl)-6-methylbenzamide]						1.87	3.67	
CCCN1CC2(CCOCC2)c2ccc(-c3cc(N(CC)C4CCOCC4)c(C)c(C(=O)NCc4c(C)cc(C)[nH]c4=O)c3F)cc21 [Example 59, N-((4,6-dimethyl-2-carbonyl-1,2-dihydropyridin-3-yl)methyl)-3-(ethyl(tetrahydro-2H-pyran-4-yl)amino)-6-fluoro-2-methyl-5-(1-propyl-2′,3′,5′,6′-tetrahydrospiro[dihydroindole-3,4′-pyran]-6-yl)benzamide]						1.97	3.35	
CCN(c1cc(-c2ccc3c(c2)N(C)C(=O)C32CCN(C(C)C)CC2)c(F)c(C(=O)NCc2c(C)cc(C)[nH]c2=O)c1C)C1CCOCC1 [Example 61, N-((4,6-dimethyl-2-oxo-1,2-dihydropyridin-3-yl)methyl)-3-(ethyl(tetrahydro-2H-pyran-4-yl)amino)-6-fluoro-5-(1′-isopropyl-1-methyl-2-oxospiro[dihydroindole-3,4′-piperidine]-6-yl)-2-methylbenzamide]	0.932	1.72	1.25	426	26.8			
CCN(c1cc(-c2ccc3c(c2)N(C(C)C)C(=O)C32CCOCC2)cc(C(=O)NCc2c(OC)cc(C)[nH]c2=O)c1C)C1CCOC(C)(C)C1 (stereo not drawn) [Example 64, 3-((2,2-dimethyltetrahydro-2H-pyran-4-yl)(ethyl)amino)-5-(1-isopropyl-2-carbonyl-2′,3′,5′,6′-tetrahydrospiro[dihydroindole-3,4′-pyran]-6-yl)-N-((4-methoxy-6-methyl-2-carbonyl-1,2-dihydropyridin-3-yl)methyl)-2-methylbenzamide]								IC50 [3, 9]: 0.81 nM
CCN(c1cc(-c2ccc3c(c2)N(C(=O)C(F)(F)F)CC32CCOCC2)cc(C(=O)NCc2c(C)cc(C)[nH]c2=O)c1C)C1CCOCC1 [Example 75, 5-(1-trifluoroacetyl-2′,3′,5′,6′-tetrahydrospiro[dihydroindole-3,4′-pyran]-6-yl)-N-((4,6-dimethyl-2-carbonyl-1,2-dihydropyridin-3-yl)methyl)-3-(ethyl(tetrahydro-2H-pyran-4-yl)amino)-2-methylbenzamide]						0.87		
CCN(c1cc(-c2ccc3c(c2)NC(=O)C32CCOCC2)cc(C(=O)NCc2c(OC)cc(C)[nH]c2=O)c1C)C1CCOCC1 [Example 115, 3-(Ethyl(tetrahydro-2H-pyran-4-yl)amino)-N-((4-methoxy-6-methyl-2-oxo-1,2-dihydropyridin-3-yl)methyl)-2-methyl-5-(2-oxo-2′,3′,5′,6′-tetrahydrospiro[dihydroindole-3,4′-pyran]-6-yl)benzamide]	0.948	1.15	1.57	415	33.1			
CCN(c1cc(-c2ccc3c(c2)NC(=O)C32CCNCC2)cc(C(=O)NCc2c(OC)cc(C)[nH]c2=O)c1C)C1CCNCC1 [Example 116, 3-(Ethyl(piperidin-4-yl)amino)-N-((4-methoxy-6-methyl-2-oxo-1,2-dihydropyridin-3-yl)methyl)-2-methyl-5-(2-oxospiro[indole-3,4′-piperidine]-6-yl)benzamide]	0.912	1.05	1.57	453				bioavailability ([1]; in vivo, po, 20 mg/kg): 34.3%
